“Also recorded” adds a separate entry of the source. Like-named read-outs stand apart in the source and are kept apart here.
How the values were obtained:
[1] = tested on: cell lines or chronic lymphocytic leukemia samples; conditions: cited from earlier work
[2] = tested on: ROR-1×TCL1 leukemia cells; test: ROR-1×TCL1 leukemia adoptive transfer in immunocompetent ROR-1-Tg mice; type: in vivo; conditions: cirmtuzumab 10 mg/kg weekly i.v. and/or ibrutinib 5 mg/kg daily via gavage, after 28 days
Source text: (§1) ROR-1×TCL1 Leukemia Adoptive Transfer Study.
After 28 days, the animals were sacrificed and the spleen of each animal was examined.

[3] = tested on: natural killer cells, macrophages or neutrophils; conditions: cited from earlier work; for cell-mediated mechanisms induced by anti-CD20 antibodies rituximab, ofatumumab or obinutuzumab: purified systems or whole blood assays
[4] = tested on: ROR-1×TCL1 leukemia cells; test: ROR-1×TCL1 leukemia adoptive transfer in immunodeficient Rag2-/-γc-/- mice; type: in vivo; conditions: day 25; for numbers of splenic ROR-1×TCL1 leukemia cells, dose dependence: ibrutinib daily 15, 5, 1.67 mg/kg or single dose UC-961/cirmtuzumab 10, 3, 1 mg/kg
Description: ROR-1×TCL1 leukemia adoptive transfer study. […] ROR-1×TCL1 leukemia B cells (CD5B220^lowROR-1^+) were isolated from the spleen, enriched via density gradient centrifugation, suspended in sterile PBS, injected i.v. into Rag2^−/−γc^−/− recipient mice at 2×10^4 cells per animal. Samples used for transplantation were verified by flow cytometry to be >95% leukemia B cells. For dose dependent therapy of UC-961, recipient mice received either no treatment, or one dose i.v. injections of 10 mg/kg, 3 mg/kg and 1 mg/kg of UC-961 on day 1. […] All mice were sacrificed on day 25 and single-cell suspensions of splenocytes were purged of red blood cells by hypotonic lysis in ammonium-chloride-potassium (ACK) lysis solution, washed, suspended in 2% (wt/vol) BSA (Sigma) in PBS (pH=7.4) and stained for surface expression of CD3 (17A2), CD5 (53-7.3), B220 (RA3-6B2), and ROR-1 (4A5) using optimized concentrations of fluorochrome-conjugated mAbs. Cells were examined by four-color, multiparameter flow cytometry using a dual-laser FACSCalibur (BD) and the data were analyzed using FlowJo software (TreeStar). The total number of leukemia cells per spleen was calculated by determining the percent of CD5B220^lowROR-1^+ cells of total lymphocytes by flow cytometry and multiplying this number by the total spleen cell count.
as §1

[5] = single dose UC-961/cirmtuzumab 1 mg/kg and/or ibrutinib 5 mg/kg daily

C=CC(=O)N1CCC[C@@H](n2nc(-c3ccc(Oc4ccccc4)cc3)c3c(N)ncnc32)C1 [ibrutinib, 1-[(3R)-3-[4-Amino-3-(4-phenoxyphenyl)-1H-pyrazolo[3,4-d]pyrimidin-1-yl]piperidin-1-yl]prop-2-en-1-one]
complement activation or complement-mediated lysis ([1]; pre-treatment with ibrutinib): did not inhibit complement activation or complement-mediated lysis
direct cell death mediated by anti-CD20 antibodies ([1]; pretreatment with ibrutinib for 1 hour): did not increase direct cell death
mean proportion and leukemia cell number in the spleen [2]: significantly lower
spleen size [2]: significantly smaller spleens
cell-mediated mechanisms induced by anti-CD20 antibodies rituximab, ofatumumab or obinutuzumab [3]: strongly inhibited all cell-mediated mechanisms
cell-mediated mechanisms induced by anti-CD20 antibodies rituximab, ofatumumab or obinutuzumab ([3]; listed as Ibrutinib): interfered with the activity of the CD20 antibodies
numbers of splenic ROR-1×TCL1 leukemia cells, dose dependence [4]: Dose-dependent inhibitory effect
numbers of splenic ROR-1×TCL1 leukemia cells, dose dependence ([4]; listed as Ibrutinib): inhibited the expansion of ROR-1×TCL1 leukemia cells in a dose-dependent manner; also recorded: reduced the numbers of splenic leukemia cells in a dose-dependent manner
percentage and total number of ROR-1×TCL1 leukemia cells per spleen [4, 5]: significantly lower
spleen size [4, 5]: significantly smaller spleens

CC[C@H](Nc1ncnc2[nH]cnc12)c1nc2cccc(F)c2c(=O)n1-c1ccccc1 [idelalisib, 5-Fluoro-3-phenyl-2-[(15)-1-(7H-purin-6-ylamino)propyl]-4(3H)-quinazolinone]
effect on immune cell-mediated mechanisms induced by anti-CD20 antibodies ([3]; 10 μM, compared with ibrutinib at the same concentration): weaker than those observed with ibrutinib
cell-mediated mechanisms induced by anti-CD20 antibodies rituximab, ofatumumab or obinutuzumab [3]: similarly inhibits the immune cell-mediated mechanisms

From US11654193B2, “Cancer treatment combinations” (The Regents of the University of California, priority 2016, dated 2023)
